The record followed here is paper PMC3497018, “Anti-Human Rhinoviral Activity of Polybromocatechol Compounds Isolated from the Rhodophyta, Neorhodomela aculeata” (Marine Drugs, 2012).

Structures are written as SMILES. Values after ≈ are worked out from the molar mass of the structure shown. Like-named read-outs stand apart in the source and are kept apart here.

Data set [1] deals with HRV2. The data set can be described thus: Antiviral activity, SRB method using CPE reduction, HRV2-infected HeLa cells. The format is cell-based, human rhinovirus. The conditions noted are these: for IC50: Human rhinovirus sp., HRV2, HeLa, HRV2 in HeLa cells, mean ± S.D., read-out: IC50, concentration required to inhibit virus-induced cytopathic effect (CPE) by 50%; for TI, therapeutic index = CC50/IC50: HRV2; for antiviral activity against HRV2 (in words): HeLa cells. As for the experimental part:
(§1) HRV 2 and 3 were provided by the ATCC (American Type Culture Collection, Manassas, VA, USA) and were propagated in human epitheloid carcinoma cervix (HeLa) cells at 32 °C. HeLa cells were maintained in minimal essential medium (MEM) supplemented with 10% fetal bovine serum (FBS) and 0.01% antibiotic-antimycotic.
(§2) Assays of antiviral activity and cytotoxicity were evaluated by the SRB method using CPE reduction, recently reported. […] Next day, medium was removed and then washed with 1× phosphate buffered saline (PBS). Infectivity of virus stock was determined by the SRB method using cytopathic effect (CPE) reduction and was determined as infectivity of the virus by SRB ID50 (50% infective dose). […] The antiviral activity of each test material was determined with a 10-fold diluted concentration ranging from 0.1 to 100 μg/mL. Three wells were used as virus controls (virus-infected non-drug-treated cells) while three wells were used as cell controls (non-infected non-drug-treated cells). The culture plates were incubated at 37 °C in 5% CO2 for 2 days. After washing 1 times with 1× PBS, 100 μL of cold (−20 °C) 70% acetone were added to each well and left for 30 min at −20 °C. 70% acetone was removed and 96-well plates were left at dry oven for 30 min. 100 μL of 0.4% (w/v) SRB in 1% acetic acid solution were added to each well and left at room temperature for 30 min. Unbound SRB was removed and the plates were washed 5 times with 1% acetic acid before oven drying and were then left in a dry oven for 1 day. Bound SRB was solubilized with 100 μL of 10 mM unbuffered tris-base solution and plates were left on a table for 30 min. The absorbance was read at 540 nm by using a VERSAmax microplate reader (Molecular Devices, Palo Alto, CA, USA) with a reference absorbance at 620 nm. To calculate the IC50 values, the results were transformed to percentage of controls and the IC50 values were graphically obtained from the dose-response curves. The percent protection achieved by the test compound in HRV2 or HRV3-infected cells was calculated by the following formula: […]
(§3) where (ODt)virus is the optical density measured with a given concentration of the test compound in virus-infected cells; (ODc)virus is the optical density measured for the control untreated virus-infected cells; and (ODc)mock is the optical density measured for control untreated mock-infected cells. The concentration achieving 50% protection according to the formula above was defined as the 50% inhibitory concentration (IC50). The therapeutic index was defined as CC50/IC50. […] Next day, medium was removed and the 96-well plates were replaced with media containing the serially diluted compounds and the cells were further incubated for 48 h. The culture medium was removed and washed with 1× PBS. The next step was conducted by antiviral activity assay above described. To calculate the CC50 values, the results were transformed to percentage of controls and the CC50 values were graphically obtained from the dose-response curves. Ribavirin was used as positive, and dimethyl sulfoxide (DMSO) was used as negative control.
(The SRB assay estimates cell density from bound dye.)

Data set [2] in a line: Cytotoxicity, SRB method, non-infected HeLa cells, 48 h. The format is cell-based, human. The conditions noted are these: human, non-infected HeLa cells, Table 4, read-out: CC50, concentration required to reduce cell growth by 50%. As for the experimental part: as §2, §3
The subject of data set [3] is HRV2. The data set is described as follows: Microscopic observation of HRV2-induced CPE in HeLa cells. The conditions noted are these: HRV2-infected HeLa cells, 20 μg/mL, 32 °C, 2 days. It is filed as cell-based, human rhinovirus. The method, then: (§4) After a 2-day infection of HeLa cells with HRV2 and HRV3, the effect of compound 1 and compound 3 on HRV-induced cytopathic effect (CPE) investigated.
(§5) Figure 3 The effect of compound 1 or compound 3 on HRV2 (left group; I) and HRV 3 (right group; II)-induced CPE. The virus-infected cells were treated with compound 1 or compound 3 of 20 μg/mL. After incubation at 32 °C in 5% of CO2 for 2 days, the cell morphology was photographed under a microscope.
(§6) Briefly, HeLa cells were seeded onto a 96-well culture plate at a concentration of 2 × 10^4 cells per well. The next day, the medium was removed and washed with PBS. Then, 0.09 mL of diluted virus suspension and 0.01 mL of medium supplemented with 20 mM MgCl2 containing compound 1 or compound 3 of 20 μg/mL were added. After incubation at 32 °C in 5% CO2 for 2 days, the morphology of cells was observed under microscope of 32 × 10 magnifications (St Ernst-Leitz, Wetzlar, Germany), and images were recorded.

The test system of data set [4] is HRV3. The data set can be described thus: Antiviral activity, SRB method using CPE reduction, HRV3-infected HeLa cells. It is filed as cell-based, human rhinovirus. The conditions noted are these: for antiviral activity against HRV3 (in words): HeLa cells; for IC50: Human rhinovirus sp., HRV3, HeLa, HRV3 in HeLa cells, mean ± S.D., ND = maximum inhibition rate under 50%, read-out: IC50, concentration required to inhibit virus-induced cytopathic effect (CPE) by 50%. As for the experimental part: as §1, §2, §3

Data set [5] relates to HRV3. The data set can be described thus: Microscopic observation of HRV3-induced CPE in HeLa cells. The format is cell-based, human rhinovirus. The conditions noted are these: HRV3-infected HeLa cells, 20 μg/mL, 32 °C, 2 days. As for the experimental part:
as §4, §5, §6

The next data set has as its system HeLa cells. The data set is described as follows: Cytotoxicity, SRB method, non-infected HeLa cells, 48 h. It is filed as cell-based, human. The following applies: Table 2, column under HRV3. The method, then:
as §2, §3

`OCc1cc(O)c(O)c(Br)c1Br` [Compound 1, 2,3-Dibromo-4,5-dihydroxybenzyl alcohol]: in the data set with HRV2 [1] (Table 4), the IC50 is 2.5 ± 0.66 µg/mL (≈ 8.39 µM) and the “TI, therapeutic index = CC50/IC50” value was 8.00. In data set [2], the CC50 at 48 h was above 20 µg/mL. For the same molecule, in the data set on HRV2 [3], the “effect on HRV2-induced visible CPE” value is “inhibited the formation of a visible CPE”. The “antiviral activity against HRV3 (in words)” value in the data set with HRV3 [4] is “did not show anti-HRV3 activity”.
As to `O=Cc1cc(O)c(O)c(Br)c1Br` [Compound 2, 2,3-Dibromo-4,5-dihydroxybenzaldehyde], the “antiviral activity against HRV2 (in words)” value with HRV2 [1] is recorded as “no antiviral effect”. Also, in the data set with HRV3 [4], the “antiviral activity against HRV3 (in words)” value is given as “no antiviral effect”.
Consider `COCc1cc(O)c(O)c(Br)c1Cc1cc(O)c(O)c(Br)c1Br` [Compound 3, 2,2′,3-Tribromo-3′,4,4′,5-tetrahydroxy-6′-methoxymethyldiphenylmethane], for which the IC50 was 7.11 ± 0.64 µg/mL (≈ 13.9 µM) in the data set on HRV2 [1] (Table 4) and 4.69 ± 0.44 µg/mL (≈ 9.14 µM) in the data set with HRV3 [4] (Table 4). The “TI, therapeutic index = CC50/IC50” value in the data set on HRV2 [1] (Table 4) is 2.81; in the data set on HRV3 [4] (Table 4, HRV3) it was 4.26. For the same molecule, the CC50 at 48 h in data set [2] was above 20 µg/mL. In the data set on HRV2 [3], the “effect on HRV2-induced visible CPE” value is “inhibited the formation of a visible CPE”. Also, the “effect on HRV3-induced visible CPE” value in the data set on HRV3 [5] is “inhibited the formation of a visible CPE”.
Turning to `COCc1cc(O)c(O)c(Br)c1Br` [Compound 4, 2,3-Dibromo-4,5-dihydroxybenzyl methyl ether], the “antiviral activity against HRV2 (in words)” value in the data set on HRV2 [1] is recorded as “no antiviral effect”. Further, the “antiviral activity against HRV3 (in words)” value in the data set with HRV3 [4] is listed as “no antiviral effect”.
Regarding `COCc1cc(Br)c(O)c(O)c1Br` [Compound 5, 2,5-Dibromo-3,4-dihydroxy-benzyl methyl ether], the “antiviral activity against HRV2 (in words)” value with HRV2 [1] is listed as “no antiviral effect”. The “antiviral activity against HRV3 (in words)” value in the data set with HRV3 [4] is “no antiviral effect”.
As for `Oc1cc(Cc2cc(O)c(O)c(Br)c2Br)c(Br)c(Br)c1O` [Compound 6, 2,2′,3,3′-Tetrabromo-4,4′,5,5′-tetrahydroxydiphenylmethane], the “antiviral activity against HRV2 (in words)” value in the data set on HRV2 [1] is on record as “no antiviral effect”. In addition, in the data set on HRV3 [4], the “antiviral activity against HRV3 (in words)” value was “no antiviral effect”.
On to `NC(=O)c1ncn([C@@H]2O[C@H](CO)[C@@H](O)[C@H]2O)n1` [Ribavirin, reference compound], for which the IC50 came out at 17.1 ± 1.48 µg/mL (≈ 70.2 µM) in the data set with HRV2 [1] (Table 2, ND = maximum inhibition rate under 50%); 2.15 ± 0.51 µg/mL (≈ 8.8 µM) in the data set on HRV2 [1] (Table 4); 14.2 ± 2.2 µg/mL (≈ 58.4 µM) in the data set with HRV3 [4] (Table 2); 5.09 ± 0.6 µg/mL (≈ 20.8 µM) with HRV3 [4] (Table 4). The “CC50, concentration required to reduce cell growth by 50%” value in the data set on HeLa cells is listed as above 20 µg/mL. Moreover, the CC50 at 48 h in data set [2] was above 20 µg/mL. For the same molecule, the “effect on HRV2-induced visible CPE” value in the data set on HRV2 [3] was “prevented a CPE”. Besides, in the data set with HRV3 [5], the “effect on HRV3-induced visible CPE” value was “prevented a CPE”.
